Where no end group is shown, it is not given here.

The assay can be described thus: Reduction of food intake in fasted mice after i.p. injection of peptide. Format: in vivo, NIH/Swiss mice. To be noted: food intake (FI) at 120 min; dose not given. An excerpt:
In yet another embodiment, the ET receptor agonist is adenoregulin. See, e.g., Donly et al., Proc. Natl. Acad. Sci. USA 89:10960-963 (1992); Amiche et al., Biochem. Biophys. Res. Comm. 191:983-90 (1993). Known sequences for adenoregulin include Genbank sequences X70278 and X72387. Originally isolated from the skin of the frog Phyllomedusa bicolor, adenoregulin belongs to the family of dermaseptins, a family of antimicrobial peptides. See, e.g., Amiche et al., J. Biol. Chem. 269:17847-52 (1994); Zhou et al., Biotechnol. Lett. 27:725-30 (2005).
Materials & Methods: NIH/Swiss mice were fasted approximately 17 hours prior to initiation of the experiment. Peptides were injected intraperitoneally (i.p.) at time zero using doses as indicated. All mice received an intraperitoneal injection (200 μl) of either vehicle or compounds at doses indicated and were immediately presented with a pre-weighed food pellet. The food pellet was weighed at 30-minute, 1-hr, and 2-hr intervals after presentation to determine the amount of food eaten. Each point reflects n=4 for mice receiving an endothelin or endothelin agonist or n=3 for mice receiving vehicle.
Food intake values reflect, at each time point, effect of test sample on food intake is expressed as % change relative to vehicle using the formula provided below.
% basal=−100*[1−(food intake of treatment group/food intake of vehicle group)].
Significant test sample effects were identified by ANOVA (p<0.05). Where a significant difference exists, test means were compared to the control mean using Dunnett's test. One-way ANOVA with Dunnett's post test was performed using GraphPad Prism® version 3.01 for Windows, GraphPad Software, San Diego, Calif. USA.
For the substance “33 (GLWSKIKEVGKEAAKAAAKAAGKAALGAVSEAV-NH2) [compound 33]”, the “% Inhibition of FI at 120 mi” value came out at 77.6%.
Consider “35 (GLWSKIKEVGKEAAKAAAKAAGKAALGAVSEA-NH2) [compound 35]”, for which the “% Inhibition of FI at 120 mi” value was determined as 28.9%.
For “36 (GLWSKIKEVGKEAAKAAAKAAGKAALGAVSEAF-NH2) [compound 36]” the value was 92.0%; for “37 (GLWSKIKEVGKEAAKAAAKAAGKAALGAVSEAL-NH2) [compound 37]”, 79.0%; for “38 (GLWSKIKEVGKEAAKAAAKAAGKAALGAVSEAI-NH2) [compound 38]”, 78.0%.
For “39 (GLWSKIKEVGKEAAKAAAKAAGKAALGAVSEAY-NH2) [compound 39]” the value was 61.0%.
Then “40 (GLWSKIKEVGKEAAKAAAKAAGKAALGAVSEAW-NH2) [compound 40]”, with 61.0%; and “41 (GLWSKIKEVGKEAAKAAAKAAGKAALGAVSEAA-NH2) [compound 41]”, with 54.0%.
For the substance “42 (GLWSKIKEVGKEAAKAAAKAAGKAALGAVSEAK-NH2) [compound 42]”, the “% Inhibition of FI at 120 mi” value is 48.0%.
Then “43 (GLWSKIKEVGKEAAKAAAKAAGKAALGAVSEAP-NH2) [compound 43]”, with 37.0%.
With “44 (GLWSKIKEVGKEAAKAAAKAAGKAALGAVSEAR-NH2) [compound 44]”, the “% Inhibition of FI at 120 mi” value is 34.0%.
Then “45 (GLWSKIKEVGKEAAKAAAKAAGKAALGAVSEAH-NH2) [compound 45]”, with 23.0%.
Then “46 (GLWSKIKEVGKEAAKAAAKAAGKAALGAVSEA-NH2) [compound 46]”, with 17.0%; and “47 (GLWSKIKEVGKEAAKAAAKAAGKAALGAVSEAVGEQ-OH) [compound 47]”, with 50.0%.
With “49 (GLWSKIKEVGKEAAKAAAKAAGKAALGAVSEA-NH2) [compound 49]”, the “% Inhibition of FI at 120 mi” value came out at 13.5%.
Then “50 (GLWSAIKEVGKEAAKAAAKAAGKAALGAVSEAV-NH2) [compound 50]”, with 22.3%; and “51 (GLASKIKEVGKEAAKAAAKAAGKAALGAVSEAV-NH2) [compound 51]”, with 25.8%; and “52 (ALWSKIKEVGKEAAKAAAKAAGKAALGAVSEAV-NH2) [compound 52]”, with 32.3%.
Then “53 (GLWSKIKEVGKEAAKAAAKAAGKAALGAASEAV-NH2) [compound 53]”, with 33.6%.
For “54 (GAWSKIKEVGKEAAKAAAKAAGKAALGAVSEAV-NH2) [compound 54]” the value was 37.3%.
As for “55 (GLWSKIKEVGKEAAKAAAKAAGKAALGAVSEAA-NH2) [compound 55]”, the “% Inhibition of FI at 120 mi” value was 54.0%.
Then “56 (GLWAKIKEVGKEAAKAAAKAAGKAALGAVSEAV-NH2) [compound 56]”, with 71.7%.
For “57 (GLWSKIKEVGKEAAKAAAKAAGKAALGAVAEAV-NH2) [compound 57]” the value was 74.8%.
Then “58 (GLWSKIKEVGKEAAKAAAKAAGKAALGAVSAAV-NH2) [compound 58]”, with 78.9%; and “59 (ALWKTMLKKLGTMALHAGKAALGAAADTISQGTQ-OH) [compound 59]”, with 58.0%; and “60 (ALWKTLLKKVGKVAGKAVLNAVTNMANQNEQ; not fully specified (C-terminus); printed as ALWKTLLKKVGKVAGKAVLNAVTNMANQNEQ-OH) [compound 60]”, with 53.0%.
Consider “61 (ALWMTLLKKVLKAAAKALNAVLVGANA-OH) [compound 61]”, for which the “% Inhibition of FI at 120 mi” value was 35.0%.
Then 62 (ALWKTLLKKVLKA-NH2) [compound 62], with 28.2%.
For the substance “63 (GMWSKIKNAGKAAAKASKKAAGKAALGAVSEALGEQ-OH) [compound 63]”, the “% Inhibition of FI at 120 mi” value is given as 50.0%.

Values taken from patent publication US20100004166A1, “Endothelin and Endothelin Receptor Agonists in the Treatment of Metabolic Diseases” (priority 2007, published 2010).
